Measured values as given in US20070155679A1, “USE OF BR[…] THE TREATMENT OF […] ASSOCIATED WITH H[…] NOVEL MEDICAMENT COMBINATIONS” (priority 2000, published 2007).

System: hypertrophic cardiomyopathy
Test: Cat with severe hypertrophic cardiomyopathy treated with cilobradine
Format: in vivo
Settings: 0.3 mg/kg per os, 2x daily
Text: The new use of the bradycardiac substances according to the invention was investigated with the if channel blocker cilobradine by way of example, using the following method:
The hypertrophic cardiomyopathy in the cat serves as a model for the corresponding disease in humans (Kittleson et al., Circulation 91, 3172-3180 (1999)).

## COc1ccc(CCN2CCC[C@H](CN3CCc4cc(OC)c(OC)cc4CC3=O)C2)cc1OC [cilobradine]
Cat with severe hypertrophic cardiomyopathy
  clinical symptoms (relief from pain, normal ECG, return of normal physiological activity pattern): significant improvement in clinical symptoms
cat, follow-up after one year and after about 2 years' treatment
  myocardial hypertrophy at follow-up: regression in myocardial hypertrophy
